Reference: PMC10278368 (The Pediatric infectious disease journal, 2011)
≈ marks a conversion by molar mass, not a printed value. Counter-ions that a name gives are not always drawn. Like-named read-outs stand apart in the source and are kept apart here. Bridge positions count the residues as written; N and C are the ends. Square brackets hold non-standard residues; d marks the D form. Peptide text beside a SMILES is read from it. * marks the point of attachment. X1 = CC[C@H](C)CCCCC(=O)*; Dab = NCC[C@H](N)C(=O)O

What was measured:
[1] = format: in vivo, human
[2] = test system: multidrug resistant Klebsiella pneumoniae; experiment: microbe, parasite or virus in culture
[3] = test system: multidrug resistant Klebsiella pneumoniae; format: in vivo, human; conditions: 1.5 mg/kg/dose every 12 hours IV in combination with amikacin once daily; persistently febrile; infant, n = 1
[4] = test system: multidrug resistant Klebsiella pneumoniae; conditions: blood culture isolate of the patient; for MIC: method not stated
Acinetobacter baumannii = experiment: MIC of the endotracheal aspirate isolate; format: cell-based; conditions: isolate from endotracheal aspirate of the patient; reported as susceptible

**Q.** With CC[C@H](C)CCCCC(=O)N[C@@H](CCN)C(=O)N[C@H](C(=O)N[C@@H](CCN)C(=O)N[C@H]1CCNC(=O)[C@H]([C@@H](C)O)NC(=O)[C@H](CCN)NC(=O)[C@H](CCN)NC(=O)[C@H]([C@@H](C)CC)NC(=O)[C@@H](Cc2ccccc2)NC(=O)[C@H](CCN)NC1=O)[C@@H](C)O [Isoleucine Polymyxin B1] (X1-[Dab]T[Dab][Dab][Dab][dF]I[Dab][Dab]T; lactam 4-C) as the compound, how does the clearance ([1]; human, in vivo, iv) read?
**A.** 4.02 mL/min

**Q.** For CC[C@H](C)CCCCC(=O)N[C@@H](CCN)C(=O)N[C@H](C(=O)N[C@@H](CCN)C(=O)N[C@H]1CCNC(=O)[C@H]([C@@H](C)O)NC(=O)[C@H](CCN)NC(=O)[C@H](CCN)NC(=O)[C@H](CC(C)C)NC(=O)[C@@H](Cc2ccccc2)NC(=O)[C@H](CCN)NC1=O)[C@@H](C)O [Polymyxin B1] (X1-[Dab]T[Dab][Dab][Dab][dF]L[Dab][Dab]T; lactam 4-C), which clearance ([1]; human, in vivo, iv) is on record?
**A.** 5.07 mL/min

**Q.** And the half-life ([1]; human, in vivo, iv)?
**A.** 3.07 h

**Q.** And the “elimination half-life (rounded)” value ([1]; infant, n = 1, IV polymyxin B, steady-state serum, LC-MS)?
**A.** 3.1 h

**Q.** With NCC[C@H](O)C(=O)N[C@@H]1C[C@H](N)[C@@H](O[C@H]2O[C@H](CN)[C@@H](O)[C@H](O)[C@H]2O)[C@H](O)[C@H]1O[C@H]1O[C@H](CO)[C@@H](O)[C@H](N)[C@H]1O [amikacin] as the compound, how does the MIC [2] read?
**A.** < 2 µg/mL

**Q.** With C[C@H]1[C@H](NC(=O)/C(=N\OC(C)(C)C(=O)O)c2csc(N)n2)C(=O)N1S(=O)(=O)O [aztreonam] as the compound, how does the MIC [2] read?
**A.** > 64 µg/mL

**Q.** With CC(C)(O/N=C(\C(=O)N[C@@H]1C(=O)N2C(C(=O)[O-])=C(C[n+]3ccccc3)CS[C@H]12)c1csc(N)n1)C(=O)O [ceftazidime] as the compound, how does the MIC [2] read?
**A.** 16 µg/mL (≈ 29.3 µM)

**Q.** For CO/N=C(\C(=O)N[C@@H]1C(=O)N2C(C(=O)O)=C(CSc3nc(=O)c(=O)[nH]n3C)CS[C@H]12)c1csc(N)n1 [ceftriaxone], which MIC [2] is on record?
**A.** 16 µg/mL (≈ 28.9 µM)

**Q.** With C[C@@H](O)[C@H]1C(=O)N2C(C(=O)O)=C(S[C@@H]3CN[C@H](C(=O)N(C)C)C3)[C@H](C)[C@H]12 [meropenem] as the compound, how does the MIC ([2]; read-out: MIC by E-test) read?
**A.** 32 µg/mL (≈ 83.4 µM)

**Q.** Which results are given for CC[C@H](C)CCCCC(=O)N[C@@H](CCN)C(=O)N[C@H](C(=O)N[C@@H](CCN)C(=O)N[C@H]1CCNC(=O)[C@H]([C@@H](C)O)NC(=O)[C@H](CCN)NC(=O)[C@H](CCN)NC(=O)[C@H](CC(C)C)NC(=O)[C@@H](Cc2ccccc2)NC(=O)[C@H](CCN)NC1=O)[C@@H](C)O [polymyxin B, Polymyxin B sulfate] (X1-[Dab]T[Dab][Dab][Dab][dF]L[Dab][Dab]T; lactam 4-C (inferred); N-terminus assumed)?
**A.** days of persistently positive blood cultures under treatment [3]: 3 days; MIC by E-test ([4]; E-test): 1.5 µg/mL

**Q.** For ampicillin/sulbactam, which MIC [4] is on record?
**A.** > 32 µg/mL

**Q.** Which MIC (Acinetobacter baumannii) does the source give for piperacillin/tazobactam here?
**A.** < 4 µg/mL

**Q.** And the MIC [4]?
**A.** > 128 µg/mL
